Data set [1] is described as follows: chimney test (motor coordination, TD50). The following applies: mouse, in vivo, ip, mice.
Description: (§1) Both the aforementioned parameters (ED50 and TD50) enabled the calculation of protective indexes (PIs), which reflect the comparative the benefit–risk ratio of these experimental therapeutic agents.
(§2) Four mice per group were randomly assigned to each experimental group in the initial screening experiments (each mouse was used just once). Four groups, each with eight animals, received injections of different doses of the investigated substances in order to determine the ED50 or TD50 values. The PIs for the compounds investigated and reference ASMs were calculated by dividing the TD50 value, as determined in the chimney test by the respective ED50 value, as determined in the MES, scPTZ, or 6 Hz (32 mA or 44 mA) tests (PI = TD50/ED50). The PIs are a measure of the potential therapeutic window of the tested agent.
(§3) All substances were suspended in Tween 80 (1% aqueous solution) and administered i.p. as a single injection at a volume of 10 mL/kg. On each day of experimentation, fresh solutions were prepared.
Data set [2] concerns the target T1, CYP2D6 (Homo sapiens, UniProt P10635).
T1 construct: purchased Promega (Madison, WI, USA)
As to the kind of experiment: CYP2D6 P450-Glo assay. The format is in vitro ADME. The method, then: The inhibition effect of enantiomers on CYP2C9 was also determined, but only at the highest concentrations (Figure 10C). In summary, the potential for DDIs of the tested enantiomers in comparison to the reference CYP inhibitors was estimated as very low.
Figure 10 Influence of (R)-31, (R)-32, and (R)-33 on: CYP3A4 activity (A) and the reference inhibitor ketoconazole (KE), CYP2D6 activity (B) and the reference inhibitor quinidine (QD), CYP2C9 activity (C) and the reference inhibitor sulfaphenazole (SE). The results are presented as means + SD. Statistical significance was evaluated by one-way ANOVA, followed by Bonferroni’s multiple comparison post hoc test (Graph Pad Prism 8.0.1 software) *p < 0.05, **p < 0.01, ***p < 0.001, ****p < 0.0001.
All assays and protocols used for the evaluation of compounds ADME-Tox parameters were described previously.[35]−[38],[95]−[98] The precoated PAMPA Plate System Gentest was utilized to estimate passive permeability (Tewksbury, MA, USA). HLMs, obtained from Sigma-Aldrich (St. Louis, MO, USA), were used for the metabolic stability assay. The most likely sites of metabolism could be identified, thanks to the MetaSite 6.0.1 program from Molecular Discovery Ltd. (Hertfordshire, UK), which was used to support the microsome experiments. The impact on recombinant human cytochromes CYP3A4, CYP2D6, and CYP2C9 was examined using CYP3A4, CYP2D6, and CYP2C9 P450-Glo kits supplied by Promega (Madison, WI, USA) in order to anticipate possible DDIs. […] The vitality of the cells was assessed using the CellTiter 96 AQueous Non-Radioactive Cell Proliferation Assay (Promega, Madison, WI, USA), following a 48 h incubation period with either the reference medication, doxorubicin (DOX), or serial dilutions of the investigated compounds. Using an EnSpire PerkinElmer microplate reader (Waltham, MA, USA), the luminescent signal and absorbances (measured at 490 nm) in DDIs and safety assays were determined. […]

Data set [3] has as its system maximal electroshock (MES) seizures, mice. As to the kind of experiment: maximal electroshock (MES) seizure test. Type of data set: in vivo. The note with it: Mus musculus, ip; for responders at 100 mg/kg: 0.5 h, read-out: MES: number of mice protected/number of mice tested; for ED50: mice, pretreatment time 0.5 h. On the technique in general: In the maximal electroshock model the usual endpoint is tonic extension of the hind limbs.
Description: as §1, §2, §3

The nature of data set [4]: metabolic stability in human liver microsomes (HLMs). The following applies: for remaining at 2 h: human, human liver microsomes, 120 min incubation, TRIS buffer pH 7.4, 37 °C; for metabolic pathway: metabolites M1–M3 (one cell per metabolite). The format is in vitro ADME. (In general: Microsomes from liver hold many membrane-bound enzymes, among them those of drug oxidation.)

For data set [5], the system named is neuromuscular strength, mice. As to the kind of experiment: grip strength test. Type of data set: in vivo, mouse. The method, then:
Prior to the ivPTZ test, a grip strength test was conducted to evaluate the tested eutomers’ acute impact on neuromuscular strength.
30 min prior to the testing, eutomers (R)-31, (R)-32, and (R)-33 were given i.p. after being suspended in a 1% Tween 80 solution. To reduce the number of animals utilized, neuromuscular strength measurements were made right before the seizure threshold test. The grip-strength test and the timed ivPTZ test experimental protocols were covered in full elsewhere.[87]
Figure S3. Effects of (R)-31, (R)-32, and (R)-33 on neuromuscular strength in mice. The compounds were administered i.p., 30 min before the test. Control animals received vehicle. Data are presented as mean ± SD grip strengths in millinewtons per gram of mouse body weight (mN/g); n = 10 animals. The statistical significance was evaluated using the Student’s t test (GraphPad Prism 8). […]

The target in data set [6] is T2, Cav1.2 (h) calcium ion channel (Homo sapiens, UniProt Q13936).
T2 construct: Eurofins
Description: Cav1.2 (h) calcium ion channel cell-based antagonist calcium flux assay. The following applies: HEK293, human recombinant HEK-293 cell, read-out: % inhibition of control agonist response. The method, then: The current body of literature consistently reports that both sodium (Navx) and Cav1.2 calcium ion channels can be involved in the pathogenesis of epilepsy[67]−[69] and neuropathic pain.[70]−[73] […] Therefore, we performed binding and functional studies toward sodium (site 2) and calcium Cav1.2 channels at concentrations of 10 μM for (R)-31−(R)-33.
Using previously described testing methodologies, binding/functional tests were conducted on a commercial basis at Eurofins Laboratories (Poitiers, France) and Eurofins Panlabs Discovery Services Taiwan, Ltd. (New Taipei City, Taiwan); see Table S9 for more information.
Table S9. Radioligand binding and functional assays.
Cav1.2 (L-type) (h) calcium ion channel cell-based antagonist calcium flux assay […]
Assays were performed commercially in Eurofins Laboratories (Poitiers, France) or Eurofins Panlabs Discovery Services
Taiwan, Ltd. (New Taipei City, Taiwan).

The text below walks through data of article PMC11378297, “Discovery and Profiling of New Multimodal Phenylglycinamide Derivatives as Potent Antiseizure and Antinociceptive Drug Candidates” (ACS Chemical Neuroscience, 2024).

Molecules are shown by their SMILES.

T1 sequence (P10635 whole entry): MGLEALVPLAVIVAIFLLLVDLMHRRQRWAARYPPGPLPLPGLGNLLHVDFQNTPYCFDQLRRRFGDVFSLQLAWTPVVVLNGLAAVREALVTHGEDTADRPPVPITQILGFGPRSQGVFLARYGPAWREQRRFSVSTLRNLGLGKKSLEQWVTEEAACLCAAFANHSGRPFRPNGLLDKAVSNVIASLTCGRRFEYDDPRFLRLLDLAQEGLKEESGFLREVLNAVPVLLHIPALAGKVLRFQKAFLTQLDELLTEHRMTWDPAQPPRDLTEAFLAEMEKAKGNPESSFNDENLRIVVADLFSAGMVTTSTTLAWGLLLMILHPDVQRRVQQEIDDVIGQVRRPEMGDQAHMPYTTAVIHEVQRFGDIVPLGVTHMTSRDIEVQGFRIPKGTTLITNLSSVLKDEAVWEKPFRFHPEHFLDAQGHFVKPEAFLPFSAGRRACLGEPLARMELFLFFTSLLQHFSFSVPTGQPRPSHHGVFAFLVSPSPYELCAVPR
T2 sequence (Q13936 whole entry): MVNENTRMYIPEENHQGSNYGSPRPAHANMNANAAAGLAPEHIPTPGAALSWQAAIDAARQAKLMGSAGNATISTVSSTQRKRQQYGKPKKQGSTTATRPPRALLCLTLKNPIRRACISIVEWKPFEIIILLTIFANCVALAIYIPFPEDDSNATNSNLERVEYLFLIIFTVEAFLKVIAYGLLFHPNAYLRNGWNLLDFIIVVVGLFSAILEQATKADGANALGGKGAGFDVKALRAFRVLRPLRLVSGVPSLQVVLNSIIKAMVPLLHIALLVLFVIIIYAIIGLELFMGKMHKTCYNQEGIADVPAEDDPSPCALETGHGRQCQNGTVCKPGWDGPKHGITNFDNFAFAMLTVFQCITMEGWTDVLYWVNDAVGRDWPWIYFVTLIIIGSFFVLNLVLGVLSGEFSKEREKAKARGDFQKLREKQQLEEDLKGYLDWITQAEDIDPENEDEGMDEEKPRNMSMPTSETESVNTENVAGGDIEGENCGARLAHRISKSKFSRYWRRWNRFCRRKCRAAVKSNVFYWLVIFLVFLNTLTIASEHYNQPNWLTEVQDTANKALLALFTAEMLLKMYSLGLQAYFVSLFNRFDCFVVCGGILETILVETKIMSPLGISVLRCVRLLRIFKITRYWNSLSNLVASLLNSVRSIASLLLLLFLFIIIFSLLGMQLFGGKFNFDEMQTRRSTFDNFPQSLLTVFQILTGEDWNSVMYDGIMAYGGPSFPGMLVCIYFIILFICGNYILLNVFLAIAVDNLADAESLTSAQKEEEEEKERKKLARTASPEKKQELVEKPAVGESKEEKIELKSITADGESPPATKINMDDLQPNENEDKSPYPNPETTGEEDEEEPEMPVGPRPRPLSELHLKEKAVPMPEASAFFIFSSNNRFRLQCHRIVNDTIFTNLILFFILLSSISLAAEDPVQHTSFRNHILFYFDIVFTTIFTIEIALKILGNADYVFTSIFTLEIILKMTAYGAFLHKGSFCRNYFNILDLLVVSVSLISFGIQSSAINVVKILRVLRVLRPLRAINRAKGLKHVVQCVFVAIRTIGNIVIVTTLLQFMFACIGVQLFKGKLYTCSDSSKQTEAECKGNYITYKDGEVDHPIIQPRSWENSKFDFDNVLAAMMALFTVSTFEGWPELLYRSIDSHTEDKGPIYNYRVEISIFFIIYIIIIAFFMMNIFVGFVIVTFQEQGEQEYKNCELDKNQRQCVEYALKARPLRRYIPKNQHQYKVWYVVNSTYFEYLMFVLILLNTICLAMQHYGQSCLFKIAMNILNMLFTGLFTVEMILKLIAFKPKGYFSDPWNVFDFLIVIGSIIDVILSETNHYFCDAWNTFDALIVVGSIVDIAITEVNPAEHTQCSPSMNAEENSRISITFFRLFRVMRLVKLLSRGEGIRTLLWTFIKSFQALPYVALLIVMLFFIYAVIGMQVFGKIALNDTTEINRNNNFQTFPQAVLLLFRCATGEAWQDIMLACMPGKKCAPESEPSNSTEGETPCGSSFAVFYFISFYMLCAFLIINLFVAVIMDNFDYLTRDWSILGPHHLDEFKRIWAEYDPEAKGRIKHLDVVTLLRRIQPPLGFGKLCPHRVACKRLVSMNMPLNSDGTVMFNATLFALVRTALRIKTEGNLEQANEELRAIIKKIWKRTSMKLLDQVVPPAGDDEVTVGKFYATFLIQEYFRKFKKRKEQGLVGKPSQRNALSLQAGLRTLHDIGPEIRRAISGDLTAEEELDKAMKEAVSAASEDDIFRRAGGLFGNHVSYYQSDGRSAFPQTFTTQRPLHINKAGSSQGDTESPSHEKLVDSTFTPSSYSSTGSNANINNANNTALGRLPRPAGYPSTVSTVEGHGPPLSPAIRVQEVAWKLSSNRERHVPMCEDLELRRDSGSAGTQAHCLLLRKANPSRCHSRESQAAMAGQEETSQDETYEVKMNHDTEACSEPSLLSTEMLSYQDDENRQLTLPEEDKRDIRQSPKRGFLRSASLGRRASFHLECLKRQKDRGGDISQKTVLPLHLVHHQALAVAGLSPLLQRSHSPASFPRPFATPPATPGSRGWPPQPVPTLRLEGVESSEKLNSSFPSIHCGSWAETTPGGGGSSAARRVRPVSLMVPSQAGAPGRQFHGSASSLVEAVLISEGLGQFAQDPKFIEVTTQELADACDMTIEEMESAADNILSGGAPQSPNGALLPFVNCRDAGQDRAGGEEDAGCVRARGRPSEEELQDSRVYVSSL
T2 sequence (Q08289 whole entry partner): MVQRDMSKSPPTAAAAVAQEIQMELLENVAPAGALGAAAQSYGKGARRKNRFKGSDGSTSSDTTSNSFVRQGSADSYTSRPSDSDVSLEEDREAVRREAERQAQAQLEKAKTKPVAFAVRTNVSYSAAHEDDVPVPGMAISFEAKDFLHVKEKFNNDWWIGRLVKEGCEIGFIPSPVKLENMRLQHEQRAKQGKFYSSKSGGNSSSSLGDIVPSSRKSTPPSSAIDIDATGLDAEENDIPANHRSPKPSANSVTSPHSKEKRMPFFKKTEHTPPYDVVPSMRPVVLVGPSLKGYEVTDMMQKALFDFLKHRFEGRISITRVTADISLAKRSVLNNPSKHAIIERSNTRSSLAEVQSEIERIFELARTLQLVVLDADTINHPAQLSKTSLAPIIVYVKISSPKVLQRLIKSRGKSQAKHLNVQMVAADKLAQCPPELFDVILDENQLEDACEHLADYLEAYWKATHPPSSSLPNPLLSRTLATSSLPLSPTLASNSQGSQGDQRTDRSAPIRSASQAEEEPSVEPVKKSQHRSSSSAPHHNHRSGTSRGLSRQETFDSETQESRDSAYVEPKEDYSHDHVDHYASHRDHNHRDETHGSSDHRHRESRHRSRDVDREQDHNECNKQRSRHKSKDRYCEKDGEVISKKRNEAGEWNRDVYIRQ
T2 sequence (P54289 25-946 partner limits assumed): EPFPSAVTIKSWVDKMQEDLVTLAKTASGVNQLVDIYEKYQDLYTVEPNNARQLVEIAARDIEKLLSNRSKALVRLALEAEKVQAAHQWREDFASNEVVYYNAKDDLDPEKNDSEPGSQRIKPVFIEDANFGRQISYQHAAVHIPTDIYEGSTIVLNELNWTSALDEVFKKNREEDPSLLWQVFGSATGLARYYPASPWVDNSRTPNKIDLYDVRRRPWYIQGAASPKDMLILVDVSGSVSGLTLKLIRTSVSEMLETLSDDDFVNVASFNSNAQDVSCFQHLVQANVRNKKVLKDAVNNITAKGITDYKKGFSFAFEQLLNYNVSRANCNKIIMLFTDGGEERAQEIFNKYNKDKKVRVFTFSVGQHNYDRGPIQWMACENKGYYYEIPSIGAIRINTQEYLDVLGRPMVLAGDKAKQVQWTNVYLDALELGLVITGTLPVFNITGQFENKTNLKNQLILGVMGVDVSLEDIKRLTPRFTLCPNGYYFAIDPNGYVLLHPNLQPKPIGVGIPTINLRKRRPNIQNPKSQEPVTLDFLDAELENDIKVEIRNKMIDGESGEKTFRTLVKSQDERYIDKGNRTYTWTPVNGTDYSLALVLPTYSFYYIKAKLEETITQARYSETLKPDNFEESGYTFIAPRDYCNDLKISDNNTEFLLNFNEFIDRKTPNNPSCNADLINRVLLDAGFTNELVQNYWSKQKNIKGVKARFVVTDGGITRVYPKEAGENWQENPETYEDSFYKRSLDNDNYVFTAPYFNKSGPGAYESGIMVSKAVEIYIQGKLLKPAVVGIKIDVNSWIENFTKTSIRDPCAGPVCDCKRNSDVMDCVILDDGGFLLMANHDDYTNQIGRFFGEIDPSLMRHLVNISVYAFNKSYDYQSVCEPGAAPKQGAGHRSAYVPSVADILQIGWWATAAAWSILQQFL
T2 sequence (P54289 947-1103 partner limits assumed): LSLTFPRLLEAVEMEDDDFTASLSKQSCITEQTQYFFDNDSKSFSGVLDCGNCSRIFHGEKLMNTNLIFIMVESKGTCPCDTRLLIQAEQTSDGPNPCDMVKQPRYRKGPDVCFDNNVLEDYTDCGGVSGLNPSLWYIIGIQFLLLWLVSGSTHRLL

Regarding `CC(=O)N[C@@H](C(=O)N1CCN(c2cccc(C(F)(F)F)c2)CC1)c1ccccc1` [(R)-31, (R)-N-(2-Oxo-1-phenyl-2-(4-(3-(trifluoromethyl)phenyl)piperazin-1-yl)ethyl)acetamide], the TD50 (in general, the dose at which the toxic effect under study appears in half of the subjects) at 0.5 h in data set [1] is 174 mg/kg. The “effect on CYP2D6 activity” value in data set [2] (1 and 10 μM) is reported as “weak activation”. Moreover, in data set [3], the responders at 100 mg/kg is 100%. The ED50 (in general, the dose that gives a 50% effect, or the effect in half of the subjects) in data set [3] is 98.4 mg/kg. The amount remaining (usually the share of the starting amount still present when the sample was taken) at 2 h in data set [4] amounted to 85.2%. For the same compound, the metabolic pathway result was “dehydrogenation” in data set [4] (metabolite 404.19 (M2)), “hydroxylation” in data set [4] (metabolite 422.22 (M3)) and “triple-hydroxylation” in data set [4] (metabolite 454.01 (M1)). The “effect on neuromuscular strength (grip strength test)” value (“effect on neuromuscular strength” for short) in data set [5] (50 mg/kg i.p.) and in data set [5] (100 mg/kg i.p.) was “did not produce any significant effects” each time. Also, the inhibition (as a rule, the share of the control response that was lost under treatment) at 10 µM in data set [6] was 75%.
`CC(=O)N[C@@H](C(=O)N1CCN(c2cccc(SC(F)(F)F)c2)CC1)c1ccccc1` [(R)-33, (R)-N-(2-Oxo-1-phenyl-2-(4-(3-((trifluoromethyl)thio)phenyl)piperazin-1-yl)ethyl)acetamide] yielded a TD50 at 0.5 h in data set [1] of 146 mg/kg. The “effect on CYP2D6 activity” value in data set [2] (25 μM) is “slightly inhibited”. Besides, the responders at 100 mg/kg in data set [3] is 100%. In data set [3], the ED50 amounted to 75.7 mg/kg. The same compound registered a fraction remaining at 2 h in data set [4] of 70.3%. The metabolic pathway result in data set [4] (metabolite 436.21 (M2)) is on record as “dehydrogenation”; in data set [4] (metabolite 454.08 (M3)), “hydroxylation”. Besides, in data set [5] (50 mg/kg i.p.), the “effect on neuromuscular strength” value is recorded as “did not produce any significant effects”. The inhibition at 10 µM in data set [6] was found to be 49%.
For the compound `CC(=O)N[C@@H](C(=O)N1CCN(c2cccc(OC(F)(F)F)c2)CC1)c1ccccc1` [(R)-32, (R)-N-(2-Oxo-1-phenyl-2-(4-(3-(trifluoromethoxy)phenyl)piperazin-1-yl)ethyl)acetamide], the TD50 at 0.5 h in data set [1] was 114 mg/kg. Besides, the “effect on CYP2D6 activity” value in data set [2] (1 and 10 μM) was “weak activation”. Besides, in data set [3], the responders at 100 mg/kg is 100% and the ED50 stood at 73.9 mg/kg. Moreover, in data set [4], the fraction remaining at 2 h is 78.5%. The metabolic pathway result in data set [4] (metabolite 420.22 (M2)) is “dehydrogenation”. The metabolic pathway result in data set [4] (metabolite 438.25 (M1)) is reported as “hydroxylation”. For the same compound, the “effect on neuromuscular strength” value in data set [5] (50 mg/kg i.p.) is on record as “did not produce any significant effects”. Moreover, the inhibition at 10 µM in data set [6] was determined as 31%.
